Data on 1 compound can be found in US20170247409A1, “ABIETANE-TYPE DITERPENOIDS” (UNIVERSITY OF HELSINKI, priority 2014, published 2017).

Converted amounts (≈) assume the structure as drawn. Read-outs that look alike come from different tables or passages of the source.

One series deals with HL cells. In words: Biocompatibility index (LC50 in HL cells / concentration causing 3-log reduction of planktonic bacteria). It is filed as cell-based, human. Conditions: ratio LC50 (HL cells) / concentration causing 3-log reduction in planktonic bacterial burden. The procedure: Additionally, the biocompatibility index (BI) was calculated for compound 22, to assess the overall impact of its antimicrobial activity, using an adaptation of the equation described for antiseptics by Muller and Kramer, 2008. BI, as originally defined by these authors, is a dimensionless parameter resulting from the ratio of the in vitro cytotoxicity values (in this case, half-lethal concentrations, LC50) to the concentration of the compound causing a 3-log reduction in the viable counts of suspended bacteria. Compounds with BI<1 are deemed as less promising, due to their potential toxic effects. Thus BI is a very useful tool for the quick exclusion of undesired toxic scaffolds or weak hits in early stage of development of anti-biofilm molecules. For the determination of the BI, acute cytotoxicity of compound 22 was measured in the same cell line described earlier (HL cells), using the resazurin assay as in Karlsson et al, 2012. The ratio of the half lethal concentration (LC50) and the concentration causing 3-log reduction in the planktonic bacterial burden was calculated (both expressed in […]), as below:
The BI value of compound 22 was clearly higher than 1, which is indicative of an adequate combination of an effective anti-biofilm activity with a low cytotoxicity. It is thus expected that toxic effects can be minimized in the host organisms exposed to compound 22.

For series [1], the system named is S. aureus ATCC 25923 biofilms. In words: Viable plate counts and Log Reduction of S. aureus ATCC 25923 biofilms. It is filed as cell-based, Staphylococcus aureus. Conditions: 400 μM, viable plate counts. The procedure: The viability of S. aureus (ATCC 25923) biofilms left upon exposure to compounds 20, 21, 22 and 25 was determined using viable plate counts and calculating the Log Reduction (Log R) value. This procedure involves scrapping the biofilms off the substrate, disaggregating them by sonication and plating the resulting suspension in agar. The method is highly laborious but it is the gold standard for the quantification of anti-biofilm efficacy (Pitts et al. 2003). […] Of note, a log R value of 2 represents a reduction of 99% of the viable cells in the biofilms, and typically, a log R of 3 is considered a relevant indicator of the compound efficacy as an anti-biofilm agent.

Series [2] concerns S. aureus ATCC 25923 biofilms. In words: Membrane depolarization in biofilms, DiBAC4(3) probe. The class given is cell-based, Staphylococcus aureus. The note with it: 1 h exposure to the biofilms (FIG. 2B). The text has this:
(§1) A: quantification of ATP release from the S. aureus ATCC 25923 biofilms using the BacTiter-Glo bioluminescent assay. B: quantification of membrane depolarization in treated biofilms by the potential-sensitive DiABC(4)3 probe; this probe can only enter depolarized cells, where it experienced an enhanced fluorescence signal upon binding to intracellular proteins. For statistical comparisons between the treated and untreated samples, an unpaired t-test with Welch's correction was used, using GraphPad Prism (v 5.0 for Mac OS X).
(§2) ATP release from the biofilms after 1 h exposure to compounds 22 and 25 at 100 μM was quantified on the culture media, using the BacTiter-Glo bioluminescent assay. […] ATP release can be often associated to membrane depolarization events. Here, such events were followed by the increase in fluorescence emission of the DiBAC4(3) probe, as in Okuda et al. (2013).

The next series deals with S. aureus Newman. In words: Anti-biofilm potency against S. aureus Newman biofilms. It is filed as cell-based, Staphylococcus aureus. Conditions: Staphylococcus aureus, S. aureus Newman. From the text: In fact, only 2-3 fold-higher concentrations of the compounds were needed to kill existing biofilms, in comparison to inhibiting bacterial colonization. […] Anti-biofilm potencies were all in the micromolar range and they were particularly significant for compound 22. […] The activity was also confirmed against S. aureus Newman strain. Potency values calculated for the S. aureus Newman (Table 3) were very similar to the values registered for S. aureus ATCC 25923.

For series [3], the system named is S. aureus ATCC 25923 biofilms. In words: ATP release from biofilms, BacTiter-Glo bioluminescent assay. Conditions: 100 μM; 1 h exposure (FIG. 2A). It is filed as cell-based, Staphylococcus aureus.
Excerpt: as §1, §2

Series [4] deals with S. epidermidis ATCC 12228. In words: Anti-biofilm activity against S. epidermidis ATCC 12228. It is filed as cell-based, Staphylococcus epidermidis. The note with it: tested at IC50 conc. measured against S. aureus ATCC 25923. The procedure:
(§3) Four of the compounds were also tested against gram-negative E. coli biofilms as well as other Staphylococcal strains, at the corresponding IC50 values measured against S. aureus ATCC 25923 (Table 4). […] Nonetheless, all the compounds presented below were found active against S. epidermidis (ATCC 12228 and ATCC 35984) strains (Table 3).

Series [5] relates to S. epidermidis ATCC 35984. Description: Anti-biofilm activity against S. epidermidis ATCC 35984. The class given is cell-based, Staphylococcus epidermidis. The note with it: tested at IC50 conc. measured against S. aureus ATCC 25923. The procedure:
as §3

Series [6] deals with S. aureus ATCC 25923 biofilms. In words: Anti-biofilm viability assay with redox dye, pre- and post-exposure, S. aureus ATCC 25923 biofilms. Conditions: for IC50 / inhibition at 400 µM: Staphylococcus aureus, S. aureus ATCC 25923; for inhibition at 400 µM: ATCC25923. It is filed as cell-based, Staphylococcus aureus.
Another series has as its system single-cell bacteria. In words: Antibacterial activity (MIC) against single-cell (planktonic) bacteria. The class given is cell-based. Conditions: Staphylococcus aureus, in the absence of biofilms, strain not stated. From the text: We selected six of the active compounds in the post-exposure assays namely, compounds 20, 21, 22, 25, 31 and 32 for the follow-up studies. […] In this mode of the assay, the interaction of the compounds occurs initially with single-cell bacteria (that is, a planktonic solution) before biofilms are formed. Therefore, we tested additionally if the compounds could exert antibacterial activity against single-cell bacteria, in the absence of biofilms. Based solely on conventional MIC and MBC values, antibacterial activities against single-cell bacteria were also high for the derivatives. […] The antibacterial activity order 22>21>25>31>20>32 correlated very well with the measured activity in preventing biofilm formation.

The test system of a further series is E. coli XL1 blue. Description: Anti-biofilm activity against E. coli XL1 blue biofilms. The class given is cell-based, Escherichia coli. The note with it: tested at IC50 conc. measured against S. aureus ATCC 25923. The procedure:
as §3

Take `CC(C)c1ccc2c(c1)CC[C@H]1[C@](C)(C(=O)N[C@@H](CC3CCCCC3)C(=O)O)CCC[C@]21C` [Compound 22, N-(Abiet-8,11,13-trien-18-oyl) Cyclohexyl-L-alanine]: the “biocompatibility index (BI)” value in the series on HL cells is “higher than 1”. The “Log Reduction (average ±SD)” value in series [1] is 2.3 (±0.1). In addition, the membrane depolarization entry in [2] is listed as “caused membrane depolarization”. The IC50 with S. aureus Newman (read-out: Potency, IC50 Post-biofilm formation) was found to be 48.2 µM; in the series with S. aureus Newman (read-out: Potency, IC50 Prior-to-biofilm formation) it was 7.9 µM; in the series with S. aureus Newman (value in parentheses, read-out: Potency, IC50 Post-biofilm formation) it was 21.9 µg/mL; in the series on S. aureus Newman (value in parentheses, read-out: Potency, IC50 Prior-to-biofilm formation), 3.6 µg/mL; in series [6] (ATCC25923, 50% inhibition of biofilm viability, read-out: Potency, IC50 Prior-to-biofilm formation), 9.4 µM; in series [6] (ATCC25923, 50% inhibition of biofilm viability, value in parentheses, read-out: Potency, IC50 Prior-to-biofilm formation), 4.2 µg/mL. Besides, in [6] (ATCC25923, 24 h, measured 24 hours after adding to existing biofilms, value in parentheses, read-out: Potency, IC50 Post-biofilm formation), the 50% inhibitory concentration (IC50) is 12.7 µg/mL. In addition, in series [3], the “ATP release from the biofilms” value is listed as “highly significant ATP leakage”. Moreover, the “Inhibition percentage (±SD) Post-biofilm formation” value in [4] was 4.4 (±5.8) %; in [5] it was 1.9 (±5.7) %; with E. coli XL1 blue, 14.2 (±13.1) %. Moreover, the “Inhibition percentage (±SD) Prior-to-biofilm formation” value in series [4] is recorded as 42.3 (±9.5) %; in series [5] it was 48.8 (±4.8) %; in the series on E. coli XL1 blue, 5.2 (±11.3) %. Further, the inhibition at 400 µM came out at 99.6% in series [6] (post-exposure, read-out: % Inhibition 400 μM POST) and 100% in [6] (pre-exposure, read-out: % Inhibition 400 μM PRE). For the same compound, in series [6] (time-course on existing biofilms, within the first hour (FIG. 1)), the “reduction of the viable biofilm cells” value is on record as approximately 50%. Moreover, the MIC in the series on single-cell bacteria came to 6.8 µg/mL (≈ 15 µM).
